Assay results taken from ChEMBL document CHEMBL4609992, “Discovery of novel small molecule induced selective degradation of the bromodomain and extra-terminal (BET) bromodomain protein BRD4 and BRD2 with cellular potencies” (Bioorg Med Chem, 2020).
Active and inactive are the calls of the source. The calls are words filed in the database; no cut-off is given here.

What was measured:
[1] = system: MV4-11; assay: Antiproliferative activity against human MV4-11 cells assessed as reduction in cell viability measured after 48 hrs by CellTiter-Glo assay; format: functional, cell-based; conditions: MV4-11, 48 h
[2] = system: K562; assay: Growth inhibition of human K562 cells assessed as cell growth inhibition incubated for 48 hrs by sulforhodamine B assay; format: functional; conditions: K562, 48 h
[3] = system: MOLT-4; assay: Growth inhibition of human MOLT4 cells assessed as cell growth inhibition incubated for 48 hrs by sulforhodamine B assay; format: functional; conditions: MOLT-4, 48 h
[4] = system: SR; assay: Growth inhibition of human SR cells assessed as cell growth inhibition incubated for 48 hrs by sulforhodamine B assay; format: functional
[5] = system: A549; assay: Growth inhibition of human A549/ATCC cells assessed as cell growth inhibition incubated for 48 hrs by sulforhodamine B assay; format: functional; conditions: A549, 48 h
[6] = system: HOP-92; assay: Growth inhibition of human HOP92 cells assessed as cell growth inhibition incubated for 48 hrs by sulforhodamine B assay; format: functional; conditions: HOP-92, 48 h
[7] = system: NCI-H226; assay: Growth inhibition of human NCI-H226 cells assessed as cell growth inhibition incubated for 48 hrs by sulforhodamine B assay; format: functional; conditions: NCI-H226, 48 h
[8] = system: NCI-H522; assay: Growth inhibition of human NCI-H522 cells assessed as cell growth inhibition incubated for 48 hrs by sulforhodamine B assay; format: functional; conditions: NCI-H522, 48 h
[9] = system: COLO 205; assay: Growth inhibition of human COLO205 cells assessed as cell growth inhibition incubated for 48 hrs by sulforhodamine B assay; format: functional; conditions: COLO 205, 48 h
[10] = system: KM12; assay: Growth inhibition of human KM12 cells assessed as cell growth inhibition incubated for 48 hrs by sulforhodamine B assay; format: functional; conditions: KM12, 48 h
[11] = system: SW-620; assay: Growth inhibition of human SW620 cells assessed as cell growth inhibition incubated for 48 hrs by sulforhodamine B assay; format: functional; conditions: SW-620, 48 h
[12] = system: SF-295; assay: Growth inhibition of human SF295 cells assessed as cell growth inhibition incubated for 48 hrs by sulforhodamine B assay; format: functional; conditions: SF-295, 48 h
[13] = system: SF-539; assay: Growth inhibition of human SF539 cells assessed as cell growth inhibition incubated for 48 hrs by sulforhodamine B assay; format: functional; conditions: SF-539, 48 h
[14] = system: SNB-19; assay: Growth inhibition of human SNB19 cells assessed as cell growth inhibition incubated for 48 hrs by sulforhodamine B assay; format: functional; conditions: SNB-19, 48 h
[15] = system: SNB-75; assay: Growth inhibition of human SNB75 cells assessed as cell growth inhibition incubated for 48 hrs by sulforhodamine B assay; format: functional; conditions: SNB-75, 48 h
[16] = system: M14; assay: Growth inhibition of human M14 cells assessed as cell growth inhibition incubated for 48 hrs by sulforhodamine B assay; format: functional; conditions: M14, 48 h
[17] = system: MDA-MB-435; assay: Growth inhibition of human MDA-MB-435 cells assessed as cell growth inhibition incubated for 48 hrs by sulforhodamine B assay; format: functional; conditions: MDA-MB-435, 48 h
[18] = system: SK-MEL-2; assay: Growth inhibition of human SK-MEL-2 cells assessed as cell growth inhibition incubated for 48 hrs by sulforhodamine B assay; format: functional; conditions: SK-MEL-2, 48 h
[19] = system: SK-MEL-28; assay: Growth inhibition of human SK-MEL-28 cells assessed as cell growth inhibition incubated for 48 hrs by sulforhodamine B assay; format: functional; conditions: SK-MEL-28, 48 h
[20] = system: UACC-62; assay: Growth inhibition of human UACC62 cells assessed as cell growth inhibition incubated for 48 hrs by sulforhodamine B assay; format: functional; conditions: UACC-62, 48 h
[21] = system: IGROV-1; assay: Growth inhibition of human IGROV1 cells assessed as cell growth inhibition incubated for 48 hrs by sulforhodamine B assay; format: functional; conditions: IGROV-1, 48 h
[22] = system: OVCAR-4; assay: Growth inhibition of human OVCAR4 cells assessed as cell growth inhibition incubated for 48 hrs by sulforhodamine B assay; format: functional; conditions: OVCAR-4, 48 h
[23] = system: OVCAR-5; assay: Growth inhibition of human OVCAR5 cells assessed as cell growth inhibition incubated for 48 hrs by sulforhodamine B assay; format: functional; conditions: OVCAR-5, 48 h
[24] = system: 786-0; assay: Growth inhibition of human 786-0 cells assessed as cell growth inhibition incubated for 48 hrs by sulforhodamine B assay; format: functional; conditions: 786-0, 48 h
[25] = system: CAKI-1; assay: Growth inhibition of human Caki1 cells assessed as cell growth inhibition incubated for 48 hrs by sulforhodamine B assay; format: functional; conditions: CAKI-1, 48 h
[26] = system: SN12C; assay: Growth inhibition of human SN12C cells assessed as cell growth inhibition incubated for 48 hrs by sulforhodamine B assay; format: functional
[27] = system: TK-10; assay: Growth inhibition of human TK10 cells assessed as cell growth inhibition incubated for 48 hrs by sulforhodamine B assay; format: functional; conditions: TK-10, 48 h
[28] = system: MDA-MB-231; assay: Growth inhibition of human MDA-MB-231 cells assessed as cell growth inhibition incubated for 48 hrs by sulforhodamine B assay; format: functional; conditions: MDA-MB-231, 48 h
[29] = system: BT-549; assay: Growth inhibition of human BT549 cells assessed as cell growth inhibition incubated for 48 hrs by sulforhodamine B assay; format: functional; conditions: BT-549, 48 h
[30] = system: T47D; assay: Growth inhibition of human T47D cells assessed as cell growth inhibition incubated for 48 hrs by sulforhodamine B assay; format: functional
[31] = system: MV4-11; assay: Antiproliferative activity against human MV4-11 cells assessed as reduction in cell viability; format: functional, cell-based
[32] = system: PC-3; assay: Antiproliferative activity against human PC3 cells assessed as reduction in cell viability; format: functional, cell-based
[33] = system: DU-145; assay: Antiproliferative activity against human DU145 cells assessed as reduction in cell viability; format: functional, cell-based
[34] = system: A549; assay: Antiproliferative activity against human A549 cells assessed as reduction in cell viability; format: functional, cell-based
[35] = system: HCC827; assay: Antiproliferative activity against human HCC827 cells assessed as reduction in cell viability; format: functional, cell-based
[36] = system: NCI-H1650; assay: Antiproliferative activity against human NCI-H1650 cells assessed as reduction in cell viability; format: functional, cell-based
[37] = system: NCI-H358; assay: Antiproliferative activity against human NCI-H358 cells assessed as reduction in cell viability; format: functional, cell-based
[38] = system: MV4-11; assay: Cell cycle arrest in human MV4-11 cells assessed as accumulation at G1 phase at 100 nM measured after 24 hrs by RNase/propidium iodide staining based FACScan flow cytometry (reference value: 59.66 %); format: functional
[39] = molecular target: Protein cereblon/Bromodomain-containing protein 4/Cullin-4A (Homo sapiens) (UniProt O60885+Q96SW2+Q13619); assay: Protac activity at cereblon/cullin4A/BRD4 in human MV4-11 cells assessed as induction of BRD4 degradation at 10 nM measured after 18 hrs by Western blot analysis; format: cell-based
[40] = molecular target: Protein cereblon/Bromodomain-containing protein 2/Cullin-4A (Homo sapiens) (UniProt P25440+Q96SW2+Q13619); assay: Protac activity at cereblon/cullin4A/BRD2 in human MV4-11 cells assessed as induction of BRD2 degradation at 50 nM measured after 18 hrs by Western blot analysis; format: cell-based
Chain of Protein cereblon/Bromodomain-containing protein 2/Cullin-4A (Homo sapiens) (P25440 whole entry, looked up): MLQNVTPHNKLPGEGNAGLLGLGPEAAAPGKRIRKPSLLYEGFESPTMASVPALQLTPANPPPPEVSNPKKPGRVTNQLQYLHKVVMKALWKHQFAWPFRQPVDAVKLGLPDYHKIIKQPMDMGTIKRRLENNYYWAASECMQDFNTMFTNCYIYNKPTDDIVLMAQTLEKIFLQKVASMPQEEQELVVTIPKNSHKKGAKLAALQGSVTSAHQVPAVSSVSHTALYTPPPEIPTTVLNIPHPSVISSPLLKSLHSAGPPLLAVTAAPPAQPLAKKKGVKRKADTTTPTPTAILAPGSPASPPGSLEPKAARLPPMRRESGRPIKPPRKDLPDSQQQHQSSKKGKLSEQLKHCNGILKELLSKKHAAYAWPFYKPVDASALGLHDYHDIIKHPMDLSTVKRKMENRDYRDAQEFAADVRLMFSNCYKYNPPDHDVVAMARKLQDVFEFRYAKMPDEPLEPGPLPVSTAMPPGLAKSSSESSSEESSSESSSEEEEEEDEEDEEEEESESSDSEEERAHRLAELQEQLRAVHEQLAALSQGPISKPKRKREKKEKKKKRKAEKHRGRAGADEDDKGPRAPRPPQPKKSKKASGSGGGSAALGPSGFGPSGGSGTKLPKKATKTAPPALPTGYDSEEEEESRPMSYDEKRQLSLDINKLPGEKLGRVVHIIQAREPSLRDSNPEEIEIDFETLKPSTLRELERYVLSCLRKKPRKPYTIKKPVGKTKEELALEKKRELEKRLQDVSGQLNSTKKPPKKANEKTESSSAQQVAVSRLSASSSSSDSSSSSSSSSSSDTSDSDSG
Chain of Protein cereblon/Bromodomain-containing protein 2/Cullin-4A (Homo sapiens) (Q13619 whole entry, looked up): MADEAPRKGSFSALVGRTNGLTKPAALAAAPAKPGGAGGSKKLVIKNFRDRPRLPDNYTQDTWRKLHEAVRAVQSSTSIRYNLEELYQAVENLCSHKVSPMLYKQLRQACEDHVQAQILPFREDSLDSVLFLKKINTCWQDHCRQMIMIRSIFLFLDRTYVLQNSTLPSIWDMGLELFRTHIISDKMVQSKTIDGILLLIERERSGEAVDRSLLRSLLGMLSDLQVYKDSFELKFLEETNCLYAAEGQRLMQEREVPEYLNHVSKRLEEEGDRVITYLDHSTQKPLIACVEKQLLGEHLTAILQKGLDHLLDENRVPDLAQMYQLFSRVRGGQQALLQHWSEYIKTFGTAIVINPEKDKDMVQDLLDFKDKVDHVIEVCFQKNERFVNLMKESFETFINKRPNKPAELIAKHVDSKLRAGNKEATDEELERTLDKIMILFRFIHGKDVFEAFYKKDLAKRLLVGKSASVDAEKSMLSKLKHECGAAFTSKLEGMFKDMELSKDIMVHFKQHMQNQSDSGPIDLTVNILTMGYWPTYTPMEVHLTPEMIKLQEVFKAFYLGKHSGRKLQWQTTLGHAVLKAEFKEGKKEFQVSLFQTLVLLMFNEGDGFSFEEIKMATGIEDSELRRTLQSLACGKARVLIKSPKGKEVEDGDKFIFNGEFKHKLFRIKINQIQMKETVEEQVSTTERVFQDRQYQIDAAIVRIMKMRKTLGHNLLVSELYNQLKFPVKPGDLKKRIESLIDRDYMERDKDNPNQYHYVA
Chain of Protein cereblon/Bromodomain-containing protein 2/Cullin-4A (Homo sapiens) (Q96SW2 whole entry, looked up): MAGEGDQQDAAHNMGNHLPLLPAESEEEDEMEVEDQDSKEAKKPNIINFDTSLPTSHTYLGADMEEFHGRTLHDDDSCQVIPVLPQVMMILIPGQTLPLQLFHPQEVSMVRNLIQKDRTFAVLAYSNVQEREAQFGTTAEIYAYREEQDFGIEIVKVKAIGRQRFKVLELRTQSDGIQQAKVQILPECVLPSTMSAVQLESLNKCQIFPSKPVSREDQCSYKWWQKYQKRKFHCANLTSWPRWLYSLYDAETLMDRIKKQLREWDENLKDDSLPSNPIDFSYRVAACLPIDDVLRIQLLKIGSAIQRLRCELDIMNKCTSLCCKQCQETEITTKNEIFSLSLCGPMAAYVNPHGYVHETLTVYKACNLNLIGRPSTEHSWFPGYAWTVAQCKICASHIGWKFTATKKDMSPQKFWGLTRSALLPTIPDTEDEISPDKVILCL

[41] = molecular target: Protein cereblon/Bromodomain-containing protein 3/Cullin-4A (Homo sapiens, UniProt Q15059+Q96SW2+Q13619); assay: Protac activity at cereblon/cullin4A/BRD3 in human MV4-11 cells assessed as induction of BRD3 degradation at 50 nM measured after 18 hrs by Western blot analysis; format: cell-based; conditions: mv4-11, 18 h, 0.05 µM
Chain of Protein cereblon/Bromodomain-containing protein 3/Cullin-4A (Q15059 whole entry): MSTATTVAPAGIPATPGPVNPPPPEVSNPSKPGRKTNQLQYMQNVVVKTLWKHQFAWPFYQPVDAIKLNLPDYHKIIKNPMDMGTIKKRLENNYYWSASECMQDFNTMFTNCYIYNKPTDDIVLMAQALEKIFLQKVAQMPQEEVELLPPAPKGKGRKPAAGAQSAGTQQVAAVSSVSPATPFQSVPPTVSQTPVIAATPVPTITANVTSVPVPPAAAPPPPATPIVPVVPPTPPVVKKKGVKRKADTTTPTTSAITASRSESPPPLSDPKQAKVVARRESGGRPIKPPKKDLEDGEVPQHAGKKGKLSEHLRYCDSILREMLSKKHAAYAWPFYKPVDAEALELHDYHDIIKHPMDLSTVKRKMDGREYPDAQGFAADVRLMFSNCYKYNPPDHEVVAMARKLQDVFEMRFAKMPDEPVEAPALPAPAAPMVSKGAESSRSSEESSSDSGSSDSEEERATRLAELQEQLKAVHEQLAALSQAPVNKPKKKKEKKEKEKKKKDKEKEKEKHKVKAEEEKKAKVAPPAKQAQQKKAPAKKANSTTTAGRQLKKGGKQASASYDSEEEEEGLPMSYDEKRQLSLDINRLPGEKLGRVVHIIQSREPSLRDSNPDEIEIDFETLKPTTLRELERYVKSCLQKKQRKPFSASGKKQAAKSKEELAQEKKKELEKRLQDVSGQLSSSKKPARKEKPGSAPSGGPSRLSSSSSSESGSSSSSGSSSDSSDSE
Chain of Protein cereblon/Bromodomain-containing protein 3/Cullin-4A (Q96SW2 whole entry): as the sequence (Q96SW2 whole entry, looked up) above
Chain of Protein cereblon/Bromodomain-containing protein 3/Cullin-4A (Q13619 whole entry): as the sequence (Q13619 whole entry, looked up) above

**Q.** `COc1ccccc1S(=O)(=O)Nc1ccc2c3c(cc(CCC(=O)NCCCCNc4cccc5c4C(=O)N(C4CCC(=O)NC4=O)C5=O)cc13)C(=O)N2C` (stereo unspecified) was tested. Which IC50 [1] did it give?
**A.** The IC50 was 12.2 nM.

**Q.** And the GI50 [2]?
**A.** Its GI50 is 422 nM.

**Q.** And the GI50 [3]?
**A.** The GI50 was 31 nM.

**Q.** And the GI50 [4]?
**A.** The GI50 was 122 nM.

**Q.** What about the GI50 [5] of the same molecule?
**A.** Its GI50 is 5260 nM.

**Q.** And the GI50 [6]?
**A.** Its GI50 is 26 nM.

**Q.** What about the GI50 [7] of the same molecule?
**A.** The GI50 was 456 nM.

**Q.** What about the GI50 [8] of the same molecule?
**A.** Its GI50 is 2740 nM.

**Q.** What about the GI50 [9] of the same molecule?
**A.** Its GI50 is 495 nM.

**Q.** What about the GI50 [10] of the same molecule?
**A.** The GI50 was 675 nM.

**Q.** And the GI50 [11]?
**A.** Its GI50 is 249 nM.

**Q.** What about the GI50 [12] of the same molecule?
**A.** The GI50 was 3220 nM.

**Q.** What about the GI50 [13] of the same molecule?
**A.** Its GI50 is 752 nM.

**Q.** And the GI50 [14]?
**A.** Its GI50 is 475 nM.

**Q.** What about the GI50 [15] of the same molecule?
**A.** The GI50 was 89 nM.

**Q.** And the GI50 [16]?
**A.** The GI50 was 937 nM.

**Q.** What about the GI50 [17] of the same molecule?
**A.** Its GI50 is 819 nM.

**Q.** And the GI50 [18]?
**A.** The GI50 was 1120 nM.

**Q.** What about the GI50 [19] of the same molecule?
**A.** The GI50 was 891 nM.

**Q.** And the GI50 [20]?
**A.** The GI50 was 5450 nM.

**Q.** What about the GI50 [21] of the same molecule?
**A.** The GI50 was 145 nM.

**Q.** And the GI50 [22]?
**A.** Its GI50 is 259 nM.

**Q.** And the GI50 [23]?
**A.** Its GI50 is 2740 nM.

**Q.** What about the GI50 [24] of the same molecule?
**A.** The GI50 was 2110 nM.

**Q.** What about the GI50 [25] of the same molecule?
**A.** The GI50 was 2630 nM.

**Q.** What about the GI50 [26] of the same molecule?
**A.** The GI50 was 447 nM.

**Q.** What about the GI50 [27] of the same molecule?
**A.** Its GI50 is 895 nM.

**Q.** What about the GI50 [28] of the same molecule?
**A.** Its GI50 is 32 nM.

**Q.** And the GI50 [29]?
**A.** The GI50 was 78 nM.

**Q.** What about the GI50 [30] of the same molecule?
**A.** Its GI50 is 34 nM.

**Q.** What about the IC50 [31] of the same molecule?
**A.** The IC50 was 9.79 nM.

**Q.** And the IC50 [32]?
**A.** Its IC50 is 932 nM.

**Q.** And the IC50 [33]?
**A.** The IC50 was 3660 nM.

**Q.** What about the IC50 [34] of the same molecule?
**A.** The IC50 was 13700 nM.

**Q.** What about the IC50 [35] of the same molecule?
**A.** The IC50 was 580 nM.

**Q.** And the IC50 [36]?
**A.** Its IC50 is 1330 nM.

**Q.** What about the IC50 [37] of the same molecule?
**A.** Its IC50 is 1380 nM.

**Q.** What about the Activity [38] of the same molecule?
**A.** Its Activity is 71.37%.

**Q.** And the Activity [39]?
**A.** Its Activity is “Active”.

**Q.** What about the Activity [40] of the same molecule?
**A.** The Activity was “Active”.

**Q.** What about the Activity [41] of the same molecule?
**A.** The Activity was “Not Active”.
